Experiment: Moisture sorption/desorption analysis
Assay type: physicochemical
Description: The profiles show the change in weight of a sample containing Form I as the relative humidity (herein referred to as “RH”) of the environment is changed between 5% and 95% at a 10% RH interval. […] The vapor sorption/desorption profiles indicate that Form I is non-hygroscopic. Moisture sorption/desorption data were collected on a VTI SGA-100 Vapor Sorption Analyzer, calibrated using sodium chloride and polyvinylpyrrolidone as calibration standards. Sorption and desorption data were collected over a range of 5% to 95% relative humidity (RH) at 10% RH interval under a nitrogen purge. Samples were not dried prior to analysis. Equilibrium criteria used for analysis were less than 0.0100% weight change in 5 minutes, with a maximum equilibration time of 3 hours if the weight criterion was not met. Data were not corrected for the initial moisture content of the sample.

C[C@H](c1cc2ccccc2s1)N(O)C(N)=O [Form I, (+)-R-zileuton]
weight change in adsorption profile (RH below 40%, FIG. 3): essentially no weight change
hygroscopicity from vapor sorption/desorption profiles (RH between 5% and 95%): non-hygroscopic
weight gain in adsorption profile (steady gain from RH 40% until RH reaches 95%, 10% RH interval, FIG. 3): approximately 2%

— patent publication US8003684B2, “Crystal form and pharmaceutical compositions of (+)-R-zileuton” (Cornerstone Therapeutics, Inc., priority 2006, dated 2011)
